This note sets out measurements from article PMC6548501, “Sterol transfer by atypical cholesterol-binding NPC2 proteins in coral-algal symbiosis” (eLife, 2019).

This assay addresses T1, Aiptasia non-canonical NPC2 XM_021052404 (Exaiptasia diaphana, UniProt A0A913XQG8).
T1 construct: expressed in HEK 293T, NPC2 - five-proline linker - crmCherry - 3xHA (C-terminal), lysate, anti-HA pull-down; native protein also precipitated from Aiptasia CC7
T1 sequence (A0A913XQG8 60-190): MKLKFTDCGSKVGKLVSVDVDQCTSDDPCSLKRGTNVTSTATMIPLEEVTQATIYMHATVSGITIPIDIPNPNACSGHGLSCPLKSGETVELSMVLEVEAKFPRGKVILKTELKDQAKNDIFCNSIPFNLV
Nature of the assay: immunoprecipitation-lipidomics (mass spectrometry of co-eluted sterols). In kind it is binding. The following applies: HEK 293T lysate mixed with Symbiodiniaceae SSB01 homogenate (sterol mixture), pH 7 or pH 5.

For `CC(C)CCC[C@@H](C)[C@H]1CC[C@H]2[C@@H]3CC=C4C[C@@H](O)CC[C@]4(C)[C@H]3CC[C@]12C` [cholesterol], the “immunoprecipitation-lipidomics (mass spectrometry of co-eluted sterols)” value was “directly bound to cholesterol and various sterols the way other NPC2 proteins normally do”.
